In the supplement of paper PMC7214452:

Legend:
Assay in all cases: normalized area under the dose-response curve (viability relative to DMSO control) (fraction); higher = less sensitive (more viable cells)
Conditions in all cases: exposure time not given
[1] = tested on: RPMI 8226 (cancer type: MM)
Protocol: (§1)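 25 myeloma and 15 non-Hodgkin lymphoma cell lines were exposed to each of 76 drugs as 7-point log dilutions (0.01 nM–10 µM) in duplicate. Viability was read with CellTiter-Glo and normalised to DMSO (0.1%) and staurosporine (10 µM) plate controls. Normalised AUC was calculated by the trapezoidal method relative to the negative control.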

SKMM2 (cancer type: MM) = tested on: SKMM2 (cancer type: MM)
Protocol: as §1

[2] = tested on: JeKo-1 (cancer type: Mantle)
Protocol: as §1

L363 (cancer type: MM) = tested on: L363 (cancer type: MM)
Protocol: as §1

[3] = tested on: SU-DHL1 (cancer type: TCL)
Protocol: as §1

U266 (cancer type: MM) = tested on: U266 (cancer type: MM)
Protocol: as §1

KMS18 (cancer type: MM) = tested on: KMS18 (cancer type: MM)
Protocol: as §1

[4] = tested on: JVM2 (cancer type: Mantle)
Protocol: as §1

[5] = tested on: NCI-H929 (cancer type: MM)
Protocol: as §1

[6] = tested on: OCI-MY5 (cancer type: MM)
Protocol: as §1

[7] = tested on: OCI-MY5/CRBN (cancer type: MM)
Protocol: as §1

[8] = tested on: Mino (cancer type: Mantle)
Protocol: as §1

[9] = tested on: OCI-MY7 (cancer type: MM)
Protocol: as §1

[10] = tested on: SU-DHL6 (cancer type: DLBCL)
Protocol: as §1

[11] = tested on: Karpas-299 (cancer type: TCL)
Protocol: as §1

OPM2 (cancer type: MM) = tested on: OPM2 (cancer type: MM)
Protocol: as §1

[12] = tested on: OCI-LY19 (cancer type: DLBCL)
Protocol: as §1

[13] = tested on: KMS28BM (cancer type: MM)
Protocol: as §1

[14] = tested on: OCI-LY3 (cancer type: DLBCL)
Protocol: as §1

MM1.R (cancer type: MM) = tested on: MM1.R (cancer type: MM)
Protocol: as §1

[15] = tested on: Granta-519 (cancer type: Mantle)
Protocol: as §1

AMO1 (cancer type: MM) = tested on: AMO1 (cancer type: MM)
Protocol: as §1

KMS11 (cancer type: MM) = tested on: KMS11 (cancer type: MM)
Protocol: as §1

KMS26 (cancer type: MM) = tested on: KMS26 (cancer type: MM)
Protocol: as §1

[16] = tested on: HuT 78 (cancer type: TCL)
Protocol: as §1

LP1 (cancer type: MM) = tested on: LP1 (cancer type: MM)
Protocol: as §1

[17] = tested on: OCI-LY1 (cancer type: DLBCL)
Protocol: as §1

KMS34 (cancer type: MM) = tested on: KMS34 (cancer type: MM)
Protocol: as §1

My-La (cancer type: TCL) = tested on: My-La (cancer type: TCL)
Protocol: as §1

[18] = tested on: OCI-MY5/Vec (cancer type: MM)
Protocol: as §1

FR4 (cancer type: MM) = tested on: FR4 (cancer type: MM)
Protocol: as §1

MM1.S (cancer type: MM) = tested on: MM1.S (cancer type: MM)
Protocol: as §1

XG2 (cancer type: MM) = tested on: XG2 (cancer type: MM)
Protocol: as §1

[19] = tested on: KMS12PE (cancer type: MM)
Protocol: as §1

EJM (cancer type: MM) = tested on: EJM (cancer type: MM)
Protocol: as §1

[20] = tested on: SR-786 (cancer type: TCL)
Protocol: as §1

[21] = tested on: KMS28PE (cancer type: MM)
Protocol: as §1

[22] = tested on: SU-DHL2 (cancer type: DLBCL)
Protocol: as §1

JJN3 (cancer type: MM) = tested on: JJN3 (cancer type: MM)
Protocol: as §1

Se-Ax (cancer type: TCL) = tested on: Se-Ax (cancer type: TCL)
Protocol: as §1

SMILES | normalized area under the dose-response curve [1] | normalized area under the dose-response curve (SKMM2 (cancer type: MM)) | normalized area under the dose-response curve [2] | normalized area under the dose-response curve (L363 (cancer type: MM)) | normalized area under the dose-response curve [3] | normalized area under the dose-response curve (U266 (cancer type: MM)) | normalized area under the dose-response curve (KMS18 (cancer type: MM)) | normalized area under the dose-response curve [4] | normalized area under the dose-response curve [5] | normalized area under the dose-response curve [6] | normalized area under the dose-response curve [7] | normalized area under the dose-response curve [8] | normalized area under the dose-response curve [9] | normalized area under the dose-response curve [10] | normalized area under the dose-response curve [11] | normalized area under the dose-response curve (OPM2 (cancer type: MM)) | normalized area under the dose-response curve [12] | normalized area under the dose-response curve [13] | normalized area under the dose-response curve [14] | normalized area under the dose-response curve (MM1.R (cancer type: MM)) | normalized area under the dose-response curve [15] | normalized area under the dose-response curve (AMO1 (cancer type: MM)) | normalized area under the dose-response curve (KMS11 (cancer type: MM)) | normalized area under the dose-response curve (KMS26 (cancer type: MM)) | normalized area under the dose-response curve [16] | normalized area under the dose-response curve (LP1 (cancer type: MM)) | normalized area under the dose-response curve [17] | normalized area under the dose-response curve (KMS34 (cancer type: MM)) | normalized area under the dose-response curve (My-La (cancer type: TCL)) | normalized area under the dose-response curve [18] | normalized area under the dose-response curve (FR4 (cancer type: MM)) | normalized area under the dose-response curve (MM1.S (cancer type: MM)) | normalized area under the dose-response curve (XG2 (cancer type: MM)) | normalized area under the dose-response curve [19] | normalized area under the dose-response curve (EJM (cancer type: MM)) | normalized area under the dose-response curve [20] | normalized area under the dose-response curve [21] | normalized area under the dose-response curve [22] | normalized area under the dose-response curve (JJN3 (cancer type: MM)) | normalized area under the dose-response curve (Se-Ax (cancer type: TCL))
COc1cc(N2CCC(N3CCN(C)CC3)CC2)ccc1Nc1ncc(Cl)c(Nc2ccccc2P(C)(C)=O)n1 [Brigatinib] | 0.351 | 0.789 | 0.815 | 0.538 | 0.123 | 0.5 | 0.469 | 0.855 | 0.39 | 0.574 | 0.835 | 0.863 | 0.83 | 0.891 | 0.504 | 0.179 | 0.803 | 0.539 | 0.921 | 0.51 | 0.84 | 0.525 | 0.466 | 0.611 | 0.524 | 0.598 | 0.989 | 0.308 | 0.76 | 0.785 | 0.723 | 0.46 | 0.745 | 0.79 | 0.55 | 0.556 | 0.191 | 0.936 | 0.527 | 0.748
Nc1cc(C(F)(F)F)c(-c2cc(N3CCOCC3)nc(N3CCOCC3)n2)cn1 [Buparlisib] | 0.358 | 0.573 | 0.365 | 0.414 | 0.375 | 0.443 | 0.445 | 0.497 | 0.3 | 0.509 | 0.605 | 0.516 | 0.71 | 0.685 | 0.513 | 0.392 | 0.564 | 0.562 | 0.571 | 0.28 | 0.493 | 0.424 | 0.477 | 0.498 | 0.348 | 0.493 | 0.562 | 0.165 | 0.627 | 0.561 | 0.454 | 0.3 | 0.303 | 0.55 | 0.654 | 0.473 | 0.38 | 0.689 | 0.55 | 0.431
Cc1noc2c1-c1ccccc1C(c1ccc(Cl)cc1)=N[C@H]2CC(N)=O [CPI0610] | 0.629 | 0.675 | 0.889 | 0.601 | 0.794 | 0.583 | 0.746 | 0.693 | 0.63 | 0.554 | 0.721 | 0.686 | 0.52 | 0.868 | 0.72 | 0.685 | 0.771 | 0.841 | 0.938 | 0.67 | 0.905 | 0.526 | 0.642 | 0.492 | 0.775 | 0.687 | 0.922 | 0.571 | 0.748 | 0.717 | 0.691 | 0.61 | 0.728 | 0.69 | 0.782 | 0.713 | 0.704 | 0.696 | 0.556 | 0.721
COc1cc2nccc(Oc3ccc(NC(=O)C4(C(=O)Nc5ccc(F)cc5)CC4)cc3)c2cc1OC [Cabozantinib] | 0.719 | 0.798 | 0.852 | 0.762 | 0.895 | 0.672 | 0.789 | 0.63 | 0.61 | 0.605 | 0.858 | 0.951 | 0.82 | 0.91 | 0.918 | 0.631 | 0.867 | 0.793 | 0.865 | 0.59 | 0.863 | 0.715 | 0.628 | 0.94 | 0.762 | 0.803 | 0.956 | 0.68 | 0.94 | 0.729 | 0.743 | 0.59 | 0.734 | 0.72 | 0.756 | 0.964 | 0.645 | 0.917 | 0.706 | 0.721
